≈ marks a conversion by molar mass, not a printed value. Entries after “also recorded” stand apart in the source; their conditions may differ. Like-named read-outs stand apart in the source and are kept apart here. Positions of bridges follow the written chain, without caps; N, C: chain ends. Residues, ends and D or L forms follow the SMILES beside them.
Experiments:
[1] = system: Gram+ and Gram− bacteria and a filamentous fungus; test: Antibiotic tests on Gram+ and Gram- bacteria and on a filamentous fungus, summary in words; assay type: cell-based; conditions: compared with the native molecule or the minimal loop
Procedure: (§1) The activity of the synthetic peptides was tested with respect to the Gram+ bacteria Mycrocossus luteus, Staphylococcus aureus, Staphylococcus epidermidis and Bacillus megaterium. The activities were determined according to the protocol described by HANCOCK et al. (http://www.interchg.ubc.ca/bobh/methods.htm)
(§2) The MIC was determined for each peptide by inhibition of growth in liquid medium. Doubling dilution of peptide was realized in the wells of a Microtest plate in a volume of 10 μl. The bacteria were grown in MUELLER HINTON BROTH (MHB, Difco) liquid medium. During the exponential growth phase, a solution with an optical density of 0.001 at 600 nm was produced, and 100 μl of this suspension were added to each well. The incubation lasted 24 h at 30° C., and the optical densities of each well were then measured at 600 nm. The value of the MIC corresponds to the first well for which the optical density had not changed.
(§3) The dishes were incubated for 24 h at 30° C. The value of the MBC corresponds to the lowest concentration of the peptide for which no colony developed.
(§4) The anti-fungal activity was determined by calculating the MIC in a growth inhibition assay for the shrimp parasite fungus Fusarium oxysporum, in liquid phase, according to the protocol described by FELHBAM et al. (J. Biol. Chem., 1994, 269:33159-63). Doubling dilutions of each peptide were realized in the wells of a Microtest plate in a volume of 10 μl. 90 μl of spores resuspended in potato dextrose broth medium (DIFCO) at a final concentration of 10^4 spores/ml were added to each well. The growth inhibition was measured after incubation for 24 h at 25° C. in the dark, by observation under an optical microscope and measurement of the increase in OD at 600 nm. The value of the MIC corresponds to the first well for which the optical density had not increased.
Using the 3-D structure of the native molecule as a basis, said molecule was fractionated into 17 elements (table I). All these fragments were synthesized and their activities were assayed using antibiotic tests on Gram+ and Gram− bacteria and on a filamentous fungus. The minimum inhibitory concentration (MIC) and minimum […] concentration (MBC) of each peptide were thus determined and were compared with those of the native molecule.

Staphylococcus aureus = assay type: cell-based
Procedure: as §1, §2, §3

Bacillus megaterium = assay type: cell-based
Procedure: as §1, §2, §3

[2] = system: Staphylococcus epidermidis; assay type: cell-based
Procedure: as §1, §2, §3

Micrococcus luteus = assay type: cell-based
Procedure: as §1, §2, §3

Fusarium oxysporum = assay type: cell-based
Procedure: as §4

[3] = system: Gram+ and Gram− bacteria and a filamentous fungus; test: Antibiotic tests on Gram+ and Gram- bacteria and on a filamentous fungus, summary in words; assay type: cell-based
[4] = system: Micrococcus lysodeikticus; assay type: cell-based; conditions: Table III
Procedure: as §2, §3

Gram+ bacteria = conditions: cited from earlier work

Staphylococcus aureus MIC (Staphylococcus aureus) | Bacillus megaterium MIC (Bacillus megaterium; Bacillus) | Staphylococcus epidermidis MIC [2] | Micrococcus luteus MIC (Micrococcus luteus) | MIC on M leuteus (Micrococcus luteus; 24 h) | Fusarium oxysporum MIC (Fusarium oxysporum; 24 h) | Compound | anti-microbial activity (in words) [1] | Staphylococcus aureus MBC (Staphylococcus aureus) | Bacillus megaterium MBC (Bacillus megaterium; Bacillus) | Staphylococcus epidermidis MBC [2] | Micrococcus luteus MBC (Micrococcus luteus) | Staphylococcus aureus MBC (Staphylococcus aureus; Table III) | Staphylococcus aureus MIC (Staphylococcus aureus; Table III) | Micrococcus lysodeikticus MIC [4] | also measured
– | – | – | – | – | – | CC(C)C[C@@H]1NC(=O)[C@H](CCCNC(=N)N)NC(=O)[C@H](Cc2c[nH]cn2)NC(=O)[C@H](Cc2c[nH]c3ccccc23)NC(=O)CNC(=O)CNC(=O)[C@@H](N)CSSC[C@@H](C(=O)O)NC(=O)[C@H](CCCNC(=N)N)NC1=O [SEQ ID NO:1, C^(S)GGWHRLRC^(S)] (H-CGGWHRLRC-OH; disulfide 1-9; N-terminus and C-terminus assumed) | has anti-bacterial activity | – | – | – | – | – | – | – | Staphylococcus aureus MBC (Staphylococcus aureus; Table II): 75 µM; Staphylococcus aureus MIC (Staphylococcus aureus; Table II): 25 µM; Bacillus megaterium MBC (Bacillus megaterium; Table II): 50 µM; Bacillus megaterium MIC (Bacillus megaterium; Table II): 26 µM; Staphylococcus epidermidis MBC ([2]; Table II): 50 µM; Staphylococcus epidermidis MIC ([2]; Table II): 17 µM; MIC on M leuteus (Micrococcus luteus; Table 1, growth inhibition in liquid medium, 24 h at 30° C.): 33 µM (≈ 35.8 µg/mL); Micrococcus luteus MBC (Micrococcus luteus; Table II): 50 µM; Micrococcus luteus MIC (Micrococcus luteus; Table II): 24 µM; Fusarium oxysporum MIC (Fusarium oxysporum; Table II, 24 h at 25° C.): 28 µM
15 µM | 24 µM | 20 µM | 14 µM | 13 µM (≈ 14.2 µg/mL) | 43 µM | N=C(N)NCCC[C@@H]1NC(=O)[C@H](CCCCN)NC(=O)[C@H](CCCNC(=N)N)NC(=O)[C@H](CCCCN)NC(=O)[C@H](Cc2c[nH]c3ccccc23)NC(=O)CNC(=O)CNC(=O)[C@@H](N)CSSC[C@@H](C(=O)O)NC1=O [SEQ ID NO:2, C^(S)GGWKRKRC^(S)] (H-CGGWKRKRC-OH; disulfide 1-9; N-terminus and C-terminus assumed) | increases the activity; also recorded: antibacterial potency greater than that of the cyclic peptide of sequence SEQ ID NO:1 | 33 µM | >75 µM | >75 µM | >75 µM | – | – | – | –
67 µM | 52 µM | 38 µM | 26 µM | 67 µM (≈ 97.1 µg/mL) | 41 µM | CC(C)C[C@@H]1NC(=O)[C@H](CCCNC(=N)N)NC(=O)[C@H](Cc2c[nH]cn2)NC(=O)[C@H](Cc2c[nH]c3ccccc23)NC(=O)CNC(=O)CNC(=O)[C@@H](NC(=O)[C@H](Cc2ccc(O)cc2)NC(=O)CNC(=O)CNC(=O)[C@@H](N)CO)CSSC[C@@H](C(=O)O)NC(=O)[C@H](CCCNC(=N)N)NC1=O [SEQ ID NO:4, SGGYC^(S)GGWHRLRS^(S)] (H-SGGYCGGWHRLRC-OH; disulfide 5-13; N-terminus and C-terminus assumed) | – | >75 µM | >75 µM | >75 µM | 13 µM | – | – | – | –
14 µM | 24 µM | 35 µM | 18 µM | – | 18.5 µM | CC(C)C[C@@H]1NC(=O)[C@H](CCCNC(=N)N)NC(=O)[C@H](Cc2c[nH]cn2)NC(=O)[C@H](Cc2c[nH]c3ccccc23)NC(=O)CNC(=O)CNC(=O)[C@H](CO)NC(=O)[C@H](Cc2ccc(O)cc2)NC(=O)CNC(=O)CNC(=O)[C@@H](N)CSSC[C@@H](C(=O)NCC(=O)O)NC(=O)[C@H](CCCNC(=N)N)NC(=O)[C@H](Cc2ccc(O)cc2)NC(=O)[C@H](CO)NC(=O)[C@H]([C@@H](C)O)NC(=O)[C@H](CO)NC(=O)[C@H](CCCNC(=N)N)NC1=O [SEQ ID NO:5, C^(S)GGYSGGWHRLRSTSYRC^(S)G] (H-CGGYSGGWHRLRSTSYRCG-OH; disulfide 1-18; N-terminus and C-terminus assumed) | – | >75 µM | 75 µM | >75 µM | 18 µM | – | – | – | MBC on M leuteus (Micrococcus luteus; 24 h): 13 µM (≈ 27.3 µg/mL)
19 µM | 25 µM | 24 µM | 29 µM | 32 µM (≈ 67.2 µg/mL) | 14 µM | CC(C)C[C@@H]1NC(=O)[C@H](CCCNC(=N)N)NC(=O)[C@H](Cc2c[nH]cn2)NC(=O)[C@H](Cc2c[nH]c3ccccc23)NC(=O)CNC(=O)CNC(=O)[C@@H](NC(=O)[C@H](Cc2ccc(O)cc2)NC(=O)CNC(=O)CNC(=O)[C@@H](N)CO)CSSC[C@@H](C(=O)N[C@H](C(=O)N[C@@H](CO)C(=O)N[C@@H](Cc2ccc(O)cc2)C(=O)N[C@@H](CCCNC(=N)N)C(=O)N[C@@H](CO)C(=O)NCC(=O)O)[C@@H](C)O)NC(=O)[C@H](CCCNC(=N)N)NC1=O [SEQ ID NO:6, SGGYC^(S)GGWHRLRC^(S)TSYRSG] (H-SGGYCGGWHRLRCTSYRSG-OH; disulfide 5-13; N-terminus and C-terminus assumed) | – | 75 µM | >75 µM | >75 µM | >75 µM | – | – | – | –
– | – | – | – | – | – | CC(C)C[C@@H]1NC(=O)[C@H](CCCNC(=N)N)NC(=O)[C@H](Cc2c[nH]cn2)NC(=O)[C@H](Cc2c[nH]c3ccccc23)NC(=O)CNC(=O)CNC(=O)[C@@H]2CSSC[C@H](NC(=O)[C@H](CCCNC(=N)N)NC1=O)C(=O)N[C@@H]([C@@H](C)O)C(=O)N[C@@H](CO)C(=O)N[C@@H](Cc1ccc(O)cc1)C(=O)N[C@@H](CCCNC(=N)N)C(=O)N[C@H](C(=O)NCC(=O)O)CSSC[C@H](N)C(=O)NCC(=O)NCC(=O)N[C@@H](Cc1ccc(O)cc1)C(=O)N2 [SEQ ID NO:7, C^(S2)GGYC^(S1)GGWHRLRC^(S1)TSYRC^(S2)G] (H-CGGYCGGWHRLRCTSYRCG-OH; disulfide 1-18, 5-13; N-terminus and C-terminus assumed) | more active than the minimal structure | – | – | – | – | – | – | – | ability to lyse cells [3]: brings about the ability to lyse cells
– | – | – | – | – | – | N=C(N)NCCC[C@@H]1NC(=O)[C@H](CCCCN)NC(=O)[C@H](CCCNC(=N)N)NC(=O)[C@H](CCCCN)NC(=O)[C@H](Cc2c[nH]c3ccccc23)NC(=O)[C@H](CCCCN)NC(=O)[C@H](CCCCN)NC(=O)[C@@H](N)CSSC[C@@H](C(=O)O)NC1=O [SEQ ID NO:21, C^(S)KKWKRKRC^(S)] (H-CKKWKRKRC-OH; disulfide 1-9; N-terminus and C-terminus assumed) | – | – | – | – | – | 9.9 µM | 4.4 µM | 6 µM | Staphylococcus epidermidis MIC ([2]; Table III): 6.8 µM; Micrococcus lysodeikticus MBC [4]: 9.9 µM
– | – | – | – | – | – | N=C(N)NCCC[C@@H]1NC(=O)[C@H](CCCCN)NC(=O)[C@H](CCCNC(=N)N)NC(=O)[C@H](CCCCN)NC(=O)[C@H](Cc2c[nH]c3ccccc23)NC(=O)[C@@H](N)CSSC[C@@H](C(=O)O)NC1=O [SEQ ID NO:23, C^(S)WKRKRC^(S)] (H-CWKRKRC-OH; disulfide 1-7; N-terminus and C-terminus assumed) | weaker | – | – | – | – | 22.2 µM | 22.2 µM | 22.2 µM | –
– | – | – | – | – | – | N=C(N)NCCC[C@@H]1NC(=O)[C@H](CCCCN)NC(=O)[C@H](Cc2c[nH]c3ccccc23)NC(=O)[C@@H](N)CSSC[C@@H](C(=O)O)NC(=O)[C@H](CCCCN)NC1=O [SEQ ID NO:24, C^(S)WKRKC^(S)] (H-CWKRKC-OH; disulfide 1-6; N-terminus and C-terminus assumed) | does not exhibit any significant biological activity | – | – | – | – | >50 µM | >50 µM | >50 µM | –
– | – | – | – | – | – | GFGCPNNYQCHRHCKSIPGRCGGYCGGWHRLRCTCYRCG (listed as Mytilus galloprovincialis) [SEQ ID NO:3, Mytilus galloprovincialis defensin, small cationic protein of 4 kDa comprising 39 amino acids; native molecule, reference compound] | – | – | – | – | – | – | – | – | Staphylococcus aureus MBC (Staphylococcus aureus; Table II): 1.2 µM; Staphylococcus aureus MIC (Staphylococcus aureus; Table II): 0.6 µM; Bacillus megaterium MBC (Bacillus megaterium; Table II): 1.5 µM; Bacillus megaterium MIC (Bacillus megaterium; Table II): 0.8 µM; Staphylococcus epidermidis MBC ([2]; Table II): 6.2 µM; Staphylococcus epidermidis MIC ([2]; Table II): 3.1 µM; MBC on M leuteus (Micrococcus luteus; Table 1, plating on MHA, 24 h at 30° C.): 2 µM; Micrococcus luteus MBC (Micrococcus luteus; Table II): 1.5 µM; Micrococcus luteus MIC (Micrococcus luteus; Table II): 0.6 µM; anti-bacterial and anti-fungal activity of MGD1 (in words) (Gram+ bacteria): has anti-bacterial activity against Gram+ bacteria and anti-fungal activity; Fusarium oxysporum MIC (Fusarium oxysporum; Table II, 24 h at 25° C.): 5 µM

Reference: patent US20060241026A1, “Novel cyclic peptides and use thereof as anti-microbial agents” (priority 2002, published 2006)
